# Assay results: US20110053773A1, “METHODS OF IMPROVING NUTRITIONAL VALUE OF PLANTS” (UNIVERSITY OF TENNESSEE RESEARCH FOUNDATION, priority 2009, published 2011)
# Assays:
# 'Riviera' bermudagrass = test: Visual tissue whitening of bermudagrass after mesotrione (Example 5); format: in vivo, Cynodon dactylon (L.) Pers.; settings: 0.28 kg/ha postemergence
# Text: Greenhouse and laboratory studies were initiated with ‘Riviera’ bermudagrass (Cynodon dactylon (L.) Pers.) treated postemergence with mesotrione at 0.28 kg×ha^−1 and sampled for tissue pigment concentrations at 0, 3, 7, 14, 21, 28 and 35 days after treatment (DAT; Table 16). […] Due to the antioxidant activity of these carotenoid pigments, these increases should improve bermudagrass stress tolerance (Kopsell et al., 2010).
# [1] = test system: sweet corn cultivars 'Merit', 'Temptation', 'Incredible'; test: Visual leaf tissue bleaching of sweet corn (Example 3, Table 9); format: in vivo; settings: mesotrione 105, atrazine 560 g ai/ha
# Protocol: Studies were conducted in a field in Knoxville, Tenn. to ascertain the growth, stress tolerance and nutritional quality differences following postemergence applications of herbicides mesotrione and atrazine, alone and in mixtures together, on the young sweet corn cultivars: ‘Merit’ (yellow-kernel sensitive genotype), ‘Temptation’ (bicolor tolerant genotype), and ‘Incredible’ (yellow-kernel moderately sensitive genotype).
# Herbicide treatments were applied as follows: 1) untreated control; 2) mesotrione (meso) at 105 g ai/ha EPOST; 3) mesotrione at 105+atrazine at 560 g ai/ha EPOST; 4) atrazine at 560 g ai/ha EPOST; 5) mesotrione at 105 g ai/ha LPOST; 6) mesotrione at 105+atrazine at 560 g ai/ha LPOST; and 7) atrazine at 560 g ai/ha LPOST. Visual ratings of plant growth were taken during season, and kernels for carotenoids were measured at harvest.
# [2] = test system: sweet corn variety 'Incredible'; test: Sugar and key antioxidant content of sweet corn (Example 1, Table 15); format: in vivo, Zea mays var. rugosa; settings: rates g ai/ha: Nicosulfuron 35, Mesotrione 105, Topramezone 18, Isoxadifen-ethyl 13, all incl. treated check with atrazine 560 g ai/ha + 1% v/v crop oil concentrate
# Text: Herbicide treatments were applied in a water carrier at 23 gallons of solution per acre on a field site near Knoxville, Tenn. and Painter, Va. […] All treatments included a PRE application of atrazine plus metolachlor in order to maintain weed free conditions. In addition, all POST treatments (including the treated check) included atrazine at 560 g ai/ha and crop oil concentrate at 1% v/v. […] Sweet corn was harvested from the center two rows of each four row plot and weighed in the husk.
# [3] = test system: sweet corn (Zea mays var. rugosa) cultivar 'Incredible'; test: Content analysis of sweet corn ears: crude protein, amino acids, detergent fiber, fatty acids, minerals (Example 1); format: in vivo; settings: POST at b59 rates; every treatment incl. check also got atrazine 560 g ai/ha + COC 1% v/v; relative to treated check (atrazine), check=0
# Text: Herbicide treatments were applied in a water carrier at 23 gallons of solution per acre on a field site near Knoxville, Tenn. and Painter, Va. Treatments include the following: 1) nicosulfuron at 35 g ai/ha (Accent); 2) mesotrione at 105 g ai/ha (Callisto); 3) nicosulfuron at 35 g ai/ha+mesotrione at 105 g ai/ha (Callisto+Accent); 4) tembotrione at 92 g ai/ha+isoxadifen-ethyl at 46 g ai/ha (Laudis); 5) topramezone at 15 g ai/ha (Impact); 6) nicosulfuron at 35 g ai/ha+isoxadifen-ethyl at 9 g ai/ha (Accent Q); 7) nicosulfuron at 35 g ai/ha+isoxadifen-ethyl at 9 g ai/ha+topramezone at 15 g ai/ha (Accent Q+Impact); 8) nicosulfuron 35 g ai/ha+isoxadifen-ethyl at 9 g ai/ha+mesotrione at 105 g ai/ha (Accent Q+Callisto); 9) treated check (atrazine or Aatrex). All treatments included a PRE application of atrazine plus metolachlor in order to maintain weed free conditions. In addition, all POST treatments (including the treated check) included atrazine at 560 g ai/ha and crop oil concentrate at 1% v/v. […] Sweet corn was harvested from the center two rows of each four row plot and weighed in the husk.
structure (smiles),measurement,setting,value
"CS(=O)(=O)c1ccc(C(=O)C2C(=O)CCCC2=O)c([N+](=O)[O-])c1 [Mesotrione*CALLISTO, mesotrione]","visual tissue whitening, maximum",'Riviera' bermudagrass; by 14 DAT,38%
same,recovery of discolored tissue,'Riviera' bermudagrass; by 21 DAT,re-greening of discolored tissue was observed
same,Leaf Tissue Visual Bleaching (%),"[1]; ‘Incredible’, 7 DAT, EPOST",16%
same,Leaf Tissue Visual Bleaching (%),"[1]; ‘Incredible’, 7 DAT, LPOST",11%
same,Leaf Tissue Visual Bleaching (%),"[1]; ‘Incredible’, 14 DAT, EPOST",9%
same,Leaf Tissue Visual Bleaching (%),"[1]; ‘Incredible’, 14 DAT, LPOST",9%
same,Leaf Tissue Visual Bleaching (%),"[1]; ‘Incredible’, 21 DAT, EPOST",8%
same,Leaf Tissue Visual Bleaching (%),"[1]; ‘Incredible’, 21 DAT, LPOST",1%
same,Leaf Tissue Visual Bleaching (%),"[1]; ‘Merit’, 7 DAT, EPOST",61%
same,Leaf Tissue Visual Bleaching (%),"[1]; ‘Merit’, 7 DAT, LPOST",34%
same,Leaf Tissue Visual Bleaching (%),"[1]; ‘Merit’, 14 DAT, EPOST",53%
same,Leaf Tissue Visual Bleaching (%),"[1]; ‘Merit’, 14 DAT, LPOST",29%
same,Leaf Tissue Visual Bleaching (%),"[1]; ‘Merit’, 21 DAT, EPOST",44%
same,Leaf Tissue Visual Bleaching (%),"[1]; ‘Merit’, 21 DAT, LPOST",9%
same,"Fructose, percent increase",[2],18%
same,"Gamma-tocopherol, percent increase",[2],5%
same,"Glucose, percent increase",[2],19%
same,"Lutein, percent increase",[2],17%
same,"Maltose, percent increase",[2],15%
same,"Sucrose, percent increase",[2],−32%
same,"Total Sugars, percent increase",[2],−4%
same,"Zeaxanthin, percent increase",[2],1%
same,"antheraxanthin, percent increase",[2],14%
same,Acid DF,[3],10 % of check
same,Alanine,[3],4 % of check
same,Amino Acid,[3],6 % of check
same,Aspartic ac,[3],7 % of check
same,Cysteine,[3],6 % of check
same,Glutamic ac,[3],6 % of check
same,Glycine,[3],4 % of check
same,Isoleucine,[3],6 % of check
same,Leucine,[3],6 % of check
same,Lysine,[3],12 % of check
same,Methionine,[3],2 % of check
same,Neutral DF,[3],13 % of check
same,Proline,[3],9 % of check
same,Protein,[3],7 % of check
same,Threonine,[3],16 % of check
same,Valine,[3],7 % of check
same,calcium,[3],0 % of check
same,copper,[3],0 % of check
same,iron,[3],21 % of check
same,magnesium,[3],20 % of check
same,manganese,[3],25 % of check
same,mon fattyac,[3],9 % of check
same,phosphorous,[3],12 % of check
same,polyfattyac,[3],12 % of check
same,potassium,[3],12 % of check
same,sat fattyac,[3],7 % of check
same,sodium,[3],21 % of check
same,tot fattyac,[3],11 % of check
same,zinc,[3],16 % of check
